Laboratory results published in ChEMBL document CHEMBL5729557, “5-membered heteroaryl carboxamide compounds for treatment of HBV” (2023).
Values joined by “and” are separate entries in the source; they are usually repeats but may differ in a detail not shown here. Identical values can stand only once.

test: Assay Measuring Activity of Test Compounds on Viral Production from HepAD38 Cells: HepAD38 cells grown in a T-150 flask (Corning, cat #: 430825) with Growth Medium (DMEM/F12 (1:1) (Hyclone, cat #: SH30023.02), 1× Pen/Strep (Invitrogen, cat #: 15140-122), 10% FBS (Tissue Culture Biologics, cat #: 101), 250 μg/mL G418 (Alfa Aesar, cat #: J62671), 1 μg/mL Tetracycline (Teknova, cat #: T3320)) were detached with 0.25% trypsin-EDTA to (Invitrogen, cat #: 25200-056). Tetracycline-free treatment medium (15 mL DMEM/F12 (1:1) 1× Pen/step, with 2% FBS, Tet-system approved (Clontech, cat #: 631106) were then added to mix, transferred into a 50 ml conical tube (Falcon, cat #: 21008-918,) and spun at 1300 rpm for 5 min. Pelleted cells were then re-suspended/washed with 50 mL of 1×DPBS (Invitrogen, cat #: 14190-136) 2 times and 50 mL treatment medium twice. HepAD38 cells were then re-suspended with 10 mL of treatment medium, syringed and counted. Wells of 96-well clear bottom TC plate (Corning, cat #: 3904,) were seeded at 50,000 cells/well in 180 μL of treatment medium, and 20 μL of either 10% DMSO (Sigma, cat #: D4540) as controls or a 10× solution of test compounds in 10% DMSO in treatment media was added for a final compound concentration starting at 10 μM, and plates were incubated in 5% CO2 incubator at 37° C. for 5 days.Subsequently viral load production was assayed by quantitative PCR (qPCR) of the HBV core sequence. PCR reaction mixture containing forward primers HBV-f 5′-CTGTGCCTTGGGTGGCTTT-3′ (IDT DNA), Reverse primers HBV-r 5′-[…]-3′ (IDT DNA), Fluorescent TaqMan™ Probes HBV-probe 5′-FAM/AGCTCCAAA/ZEN/[…]/3IABkFQ-3′ (IDT DNA), 10 μL/well of PerfeCTa® qPCR ToughMix® (Quanta Biosciences, Cat #: 95114-05K), and 6 μL/well of DEPC water (Alfa Aesar, cat #: J62087) was prepared. […] of supernatant was added to 16 μL of the reaction mixture in a qPCR plate (Applied Biosytems, Cat #: 4309849), sealed with a film (Applied Biosystems, Cat #: 4311971), centrifuged for a few seconds, and subsequently run on an Applied Biosystems VIIA7. The PCR mixture was incubated at 45° C. for 5 min, then 95° C. for 10 min, followed by 40 cycles of 10 seconds at 95° C. and 20 seconds at 60° C. Viral load was quantified against known HBV DNA standards by using ViiA™ 7 Software. Viral load in the supernatant from wells with treated cells were compared against viral load in supernatant from DMSO control wells (>3 per plate). Cell viability assay was performed with CellTiter-Glo Luminescent Cell Viability Assay (Promega, cat #: G7573) with modification. Mixed appropriate amount of CellTiter-Glo (CTG) 1×DPBS in a 1:1 ratio, added 100 uL of the mixture to each well followed completely removal of all supernatant in each well without touching cell surface. Incubated the plate at room temperature for 10 min on an orbital shaker, and then read the plate with a plate reader (TECAN M1000 or Envision).; details: not given

Structure (SMILES)	EC50
Cn1nc(C2CC3CC(O)(CS(=O)(=O)NC4CC4)CC3C2)c(C(=O)Nc2ccc(F)c(Cl)c2)c1N (stereo not given)	in the range around 300 nM and < 100 nM
COC(=O)CC1(O)CC2CC(c3nn(C)c(N)c3C(=O)Nc3ccc(F)c(Cl)c3)CC2C1 (stereo not given)	< 100 nM
COc1ccc([C@@H]2CC[C@H](c3nn(C)c(N)c3C(=O)Nc3ccc(F)c(Cl)c3)C2)cc1	< 100 nM and in the range around 300 nM

same assay, conditions: HePAD38

Structure (SMILES)	EC50
Cn1nc([C@H]2CC3COC(=O)C[C@H]3C2)c(C(=O)Nc2ccc(F)c(Cl)c2)c1N (stereo not given in full)	< 100 nM
Cn1nc([C@@H]2CC3CC(O)(CS(=O)(=O)C(C)(C)C)C[C@H]3C2)c(C(=O)Nc2ccc(F)c(Cl)c2)c1N (stereo not given in full)	< 100 nM
Cn1nc([C@H]2CC3CC(=NO)C[C@@H]3C2)c(C(=O)Nc2ccc(F)c(Cl)c2)c1N (stereo not given in full)	< 100 nM
Cn1nc(C2CC3CC(O)(C(=O)NC4CC4)CC3C2)c(C(=O)Nc2ccc(F)c(Cl)c2)c1N (stereo not given)	in the range around 300 nM
COc1cc(-c2nccn2C)ccc1[C@@H]1CC[C@@H](c2nn(C)c(N)c2C(=O)Nc2ccc(F)c(Cl)c2)C1	< 100 nM
CC(C)OCC1(O)CC2C[C@@H](c3nn(C)c(N)c3C(=O)Nc3ccc(F)c(Cl)c3)C[C@H]2C1 (stereo not given in full)	in the range around 5250 nM
Cn1cc([C@H]2CC[C@H](c3nn(C)c(N)c3C(=O)Nc3ccc(F)c(Cl)c3)C2)cn1	in the range around 300 nM
COc1cc(C(O)NCCN)ccc1C1CCC(c2nn(C)c(N)c2C(=O)Nc2ccc(F)c(Cl)c2)C1 (stereo not given)	in the range around 300 nM
Cn1nc(C2CC3CC(O)(C4CC4)CC3C2)c(C(=O)Nc2ccc(F)c(Cl)c2)c1N (stereo not given)	< 100 nM
Cn1nc([C@@H]2CC[C@H](c3ccccc3)C2)c(C(=O)Nc2ccc(F)c(Cl)c2)c1N	< 100 nM
Cn1nc([C@@H]2CC3CC(O)(CSC(C)(C)C)C[C@@H]3C2)c(C(=O)Nc2ccc(F)c(Cl)c2)c1N (stereo not given in full)	< 100 nM
COc1cc(-c2cn(C)cn2)ccc1[C@H]1CC[C@@H](c2nn(C)c(N)c2C(=O)Nc2ccc(F)c(Cl)c2)C1	in the range around 300 nM
Cn1nc(C2CC3CC(OCC(F)(F)F)CC3C2)c(C(=O)Nc2ccc(F)c(Cl)c2)c1N (stereo not given)	< 100 nM
Cn1nc([C@@H]2CC3CC(O)(CC(=O)O)C[C@H]3C2)c(C(=O)Nc2ccc(F)c(Cl)c2)c1N (stereo not given in full)	< 100 nM
Cn1nc([C@@H]2CC3CC(O)(CS(=O)(=O)CCCN4CCCCC4)C[C@H]3C2)c(C(=O)Nc2ccc(F)c(Cl)c2)c1N (stereo not given in full)	in the range around 300 nM
COc1cc(-c2cscn2)ccc1C1CCC(c2nn(C)c(N)c2C(=O)Nc2ccc(F)c(Cl)c2)C1 (stereo not given)	< 100 nM
Cn1nc([C@@H]2CC3CC(O)(CC(=O)O)C[C@@H]3C2)c(C(=O)Nc2ccc(F)c(Cl)c2)c1N (stereo not given in full)	< 100 nM
Cn1nc(C2CC3CC(O)(COC(F)F)CC3C2)c(C(=O)Nc2ccc(F)c(Cl)c2)c1N (stereo not given)	< 100 nM
COC(=O)CC1(O)CC2CC(c3nn(C)c(N)c3C(=O)Nc3ccc(F)c(Cl)c3)CC2C1 (stereo not given)	< 100 nM
Cn1nc([C@@H]2CC3CC(O)(CS(=O)(=O)CCCN4CCNCC4=O)C[C@@H]3C2)c(C(=O)Nc2ccc(F)c(Cl)c2)c1N (stereo not given in full)	in the range around 5250 nM
Cn1cc([C@H]2CC[C@@H](c3nn(C)c(N)c3C(=O)Nc3ccc(F)c(Cl)c3)C2)cn1	< 100 nM

Structure (SMILES)	EC50
Cn1nc([C@@H]2CC3CC(O)(CS(=O)(=O)C(C)(C)C)C[C@@H]3C2)c(C(=O)Nc2ccc(F)c(Cl)c2)c1N (stereo not given in full)	< 100 nM
Cn1nc([C@@H]2CC3CC(O)(CSCCN4CCOCC4)C[C@@H]3C2)c(C(=O)Nc2ccc(F)c(Cl)c2)c1N (stereo not given in full)	< 100 nM
Cn1nc(C2CC3CN(C(=O)N4CCCC4)CC3C2)c(C(=O)Nc2ccc(F)c(Cl)c2)c1N (stereo not given)	< 100 nM
CN(C)C(=O)CC1CC2CC(c3nn(C)c(N)c3C(=O)Nc3ccc(F)c(Cl)c3)CC2C1 (stereo not given)	< 100 nM
CCOC(=O)c1c(C2CCC(c3ccccc3)C2)noc1N (stereo not given)	in the range around 300 nM
Cn1nc([C@@H]2CC3CNC(=O)C[C@H]3C2)c(C(=O)Nc2ccc(F)c(Cl)c2)c1N (stereo not given in full)	< 100 nM
Cn1nc(C2CCN(c3ccccc3)C2)c(C(=O)Nc2ccc(F)c(Cl)c2)c1N (stereo not given)	in the range around 300 nM
Cn1nc(C2CC3CSCC3C2)c(C(=O)Nc2ccc(F)c(Cl)c2)c1N (stereo not given)	< 100 nM
Cn1nc(C2CC3CC(C(N)=O)CC3C2)c(C(=O)Nc2ccc(F)c(Cl)c2)c1N (stereo not given)	< 100 nM
CC(C)Oc1ccc(C2CCC(c3nn(C)c(N)c3C(=O)Nc3ccc(F)c(Cl)c3)C2)cc1 (stereo not given)	< 100 nM
Cn1nc([C@@H]2CC3CC(O)(CSCCO)C[C@@H]3C2)c(C(=O)Nc2ccc(F)c(Cl)c2)c1N (stereo not given in full)	< 100 nM
Cn1nc([C@H]2CC[C@@H](c3ccccc3)C2)c(C(=O)Nc2ccc(F)c(Cl)c2)c1N	< 100 nM
CN1CC2CC(c3nn(C)c(N)c3C(=O)Nc3ccc(F)c(Cl)c3)CC2C1 (stereo not given)	in the range around 5250 nM
Cn1nc(C2CC3CC(NCCO)CC3C2)c(C(=O)Nc2ccc(F)c(Cl)c2)c1N (stereo not given)	in the range around 300 nM
Cn1cc(-c2ccc([C@H]3CC[C@H](c4nn(C)c(N)c4C(=O)Nc4ccc(F)c(Cl)c4)C3)cc2)cn1	< 100 nM
Cn1nc(C2CC3CC(N)CC3C2)c(C(=O)Nc2ccc(F)c(Cl)c2)c1N (stereo not given)	in the range around 300 nM
Cn1nc(C2CCC(c3ccccc3)C2)c(C(=O)Nc2ccc(F)c(C#N)c2)c1N (stereo not given)	< 100 nM
Cn1nc(C2CC3CC(O)(CS(=O)(=O)CCCN4CCNC(=O)C4)CC3C2)c(C(=O)Nc2ccc(F)c(Cl)c2)c1N (stereo not given)	in the range around 5250 nM
CN(C1CC2CC(c3nn(C)c(N)c3C(=O)Nc3ccc(F)c(Cl)c3)CC2C1)S(C)(=O)=O (stereo not given)	< 100 nM
Cn1nc([C@@H]2CC3COC(=O)C[C@@H]3C2)c(C(=O)Nc2ccc(F)c(Cl)c2)c1N (stereo not given in full)	in the range around 300 nM
CCC1OCC2(CC3C[C@H](c4nn(C)c(N)c4C(=O)Nc4ccc(F)c(Cl)c4)C[C@H]3C2)O1 (stereo not given in full)	< 100 nM

Structure (SMILES)	EC50
CNC(=O)N1CC2CC(c3nn(C)c(N)c3C(=O)Nc3ccc(F)c(Cl)c3)CC2C1 (stereo not given)	< 100 nM
Cn1nc(C2CC3CC(N4CCNC(=O)C4)CC3C2)c(C(=O)Nc2ccc(F)c(C#N)c2)c1N (stereo not given)	< 100 nM
Cn1nc([C@@H]2CC3CC(O)(CN4CCCCC4)C[C@@H]3C2)c(C(=O)Nc2ccc(F)c(Cl)c2)c1N (stereo not given in full)	in the range around 300 nM
CCOC(=O)CC1CC2CC(c3nn(C)c(N)c3C(=O)Nc3ccc(F)c(Cl)c3)CC2C1 (stereo not given)	< 100 nM
CCN(CC)C1CC2CC(c3nn(C)c(N)c3C(=O)Nc3ccc(F)c(Cl)c3)CC2C1 (stereo not given)	in the range around 300 nM
COc1cccc([C@H]2CC[C@H](c3nn(C)c(N)c3C(=O)Nc3ccc(F)c(Cl)c3)C2)c1	< 100 nM
Cn1nc([C@@H]2CC3CC(O)(CSCCO)C[C@H]3C2)c(C(=O)Nc2ccc(F)c(Cl)c2)c1N (stereo not given in full)	< 100 nM
CC(C)C1(O)CC2C[C@@H](c3nn(C)c(N)c3C(=O)Nc3ccc(F)c(Cl)c3)C[C@H]2C1O (stereo not given in full)	< 100 nM
Cn1nc(C2CC3CC(CC(N)=O)CC3C2)c(C(=O)Nc2ccc(F)c(Cl)c2)c1N (stereo not given)	< 100 nM
Cn1nc(C2CC3CC(O)(CSCCO)CC3C2)c(C(=O)Nc2ccc(F)c(Cl)c2)c1N (stereo not given)	< 100 nM
Cn1nc([C@H]2CC[C@H](c3ccccc3)C2)c(C(=O)Nc2ccc(F)c(Cl)c2)c1N	in the range around 5250 nM
Cn1nc(C2CC3CC(OC(C)(C)C)CC3C2)c(C(=O)Nc2ccc(F)c(Cl)c2)c1N (stereo not given)	< 100 nM
Cn1nc([C@@H]2CC3CC(O)(CS(C)(=O)=O)C[C@@H]3C2)c(C(=O)Nc2ccc(F)c(Cl)c2)c1N (stereo not given in full)	< 100 nM
Cn1nc(C2CC3CC(O)(CC(=O)O)CC3C2)c(C(=O)Nc2ccc(F)c(Cl)c2)c1N (stereo not given)	< 100 nM
Cn1nc(C2CC3CCCC3C2)c(C(=O)Nc2ccc(F)c(Cl)c2)c1N (stereo not given)	< 100 nM
Cn1nc([C@@H]2CC3CC(O)(CN4CCCCC4)C[C@H]3C2)c(C(=O)Nc2ccc(F)c(Cl)c2)c1N (stereo not given in full)	in the range around 300 nM
Cn1nc(C2CCC(c3csc(C(F)(F)F)n3)C2)c(C(=O)Nc2ccc(F)c(Cl)c2)c1N (stereo not given)	in the range around 5250 nM
CCS(=O)(=O)CC1(O)CC2C[C@@H](c3nn(C)c(N)c3C(=O)Nc3ccc(F)c(Cl)c3)C[C@@H]2C1 (stereo not given in full)	< 100 nM
Cn1nc(C2CC3CC(N4CCOCC4)CC3C2)c(C(=O)Nc2ccc(F)c(Cl)c2)c1N (stereo not given)	< 100 nM
Cn1nc(C2CC3CC([S+](C)[O-])CC3C2)c(C(=O)Nc2ccc(F)c(Cl)c2)c1N (stereo not given)	< 100 nM
